# According to patent US12617795B2, “Substituted 6,7-dihydro-5H-pyrrolo[3,4-d]pyrimidines, 5,7-dihydrofuro[3,4-d]pyrimidines, and pyrido[2,3-d]pyrimidines as KCC2 modulators” (Astrazeneca AB, priority 2020, dated 2026):
# Target: T1, KCC2 (Homo sapiens, UniProt Q9H2X9)
# T1 construct: expressed in transfected cells; host or cells: HEK293 cells electroporated (Maxcyte STX) with the pcDNA3.1 KCC2 plasmid
# T1 sequence (Q9H2X9 1-1139): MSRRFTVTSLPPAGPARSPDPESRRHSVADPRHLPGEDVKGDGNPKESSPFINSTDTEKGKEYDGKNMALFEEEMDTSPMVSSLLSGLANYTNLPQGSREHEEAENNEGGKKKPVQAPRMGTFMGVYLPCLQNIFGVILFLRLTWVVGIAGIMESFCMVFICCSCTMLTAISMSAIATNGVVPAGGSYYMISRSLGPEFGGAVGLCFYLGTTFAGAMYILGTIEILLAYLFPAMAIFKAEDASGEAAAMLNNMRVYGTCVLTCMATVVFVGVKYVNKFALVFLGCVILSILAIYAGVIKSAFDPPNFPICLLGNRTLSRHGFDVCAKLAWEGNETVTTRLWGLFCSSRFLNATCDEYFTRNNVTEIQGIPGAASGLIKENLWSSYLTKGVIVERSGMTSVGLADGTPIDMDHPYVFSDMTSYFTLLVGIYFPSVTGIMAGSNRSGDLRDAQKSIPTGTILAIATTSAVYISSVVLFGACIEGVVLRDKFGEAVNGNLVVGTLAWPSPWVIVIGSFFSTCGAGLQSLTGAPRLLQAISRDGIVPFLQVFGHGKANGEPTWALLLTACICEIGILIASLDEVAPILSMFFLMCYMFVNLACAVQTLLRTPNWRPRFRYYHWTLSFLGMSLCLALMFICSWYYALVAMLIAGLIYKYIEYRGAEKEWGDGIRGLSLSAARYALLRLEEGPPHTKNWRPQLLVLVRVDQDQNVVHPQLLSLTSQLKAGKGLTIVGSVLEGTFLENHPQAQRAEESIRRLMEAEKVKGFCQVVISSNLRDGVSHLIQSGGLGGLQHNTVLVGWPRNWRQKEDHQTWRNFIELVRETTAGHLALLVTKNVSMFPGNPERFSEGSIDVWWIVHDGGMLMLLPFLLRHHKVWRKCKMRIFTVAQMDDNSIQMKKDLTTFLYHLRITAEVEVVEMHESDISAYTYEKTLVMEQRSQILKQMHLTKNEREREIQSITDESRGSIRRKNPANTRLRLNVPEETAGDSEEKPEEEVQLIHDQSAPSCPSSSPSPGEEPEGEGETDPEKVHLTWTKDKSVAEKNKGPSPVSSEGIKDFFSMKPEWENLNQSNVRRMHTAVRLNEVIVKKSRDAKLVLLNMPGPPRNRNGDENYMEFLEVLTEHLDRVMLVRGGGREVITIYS
# Test: KCC2 thallium transport FLIPR-based assay (Tl+ influx in HEK293 cells expressing KCC2)
# Assay type: cell-based
# Settings: 90 min compound incubation at RT, thallium flux at 120 s used to determine EC50
# Outline: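 Transient electroporation of codon-optimised human KCC2 into HEK293 cells, plated and cultured 48 h before dye loading (1 h, RT). Compounds run as a 12-point 1:2 series from 100 μM top, 90 min RT in buffer containing bumetanide; Tl+ flux read by FLIPR after stimulus addition, 1 s intervals over 120 s, with the 120 s signal used for EC50.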
row,SMILES,EC50
1,"CC(C)N1Cc2c(Nc3ccc(C4CCCCC4)cc3)nc(-n3ccnc3)nc2C1=O [Example 79, 4-((4-cyclohexylphenyl)amino)-2-(1H-imidazol-1-yl)-6-isopropyl-5,6-dihydro-7H-pyrrolo[3,4-d]pyrimidin-7-one]",6.3 µM
2,"CC(C)c1ccc(Nc2nc(N3CCOCC3C)nc3c2CN(C(C)C)C3=O)cc1 (stereo not drawn) [Example 9, 2-(3-methylmorpholin-4-yl)-6-(propan-2-yl)-4-{[4-(propan-2-yl)phenyl]amino}-5,6-dihydro-7H-pyrrolo[3,4-d]pyrimidin-7-one]",6.14 µM
3,"CC(C)N1Cc2c(Nc3ccc(C4CCCCC4)cc3)nc(N(C)Cc3ccon3)nc2C1=O [Example 22, 4-[(4-cyclohexylphenyl)amino]-2-{methyl[(1,2-oxazol-3-yl)methyl]amino}-6-(propan-2-yl)-5,6-dihydro-7H-pyrrolo[3,4-d]pyrimidin-7-one]",2.79 µM
4,"C#CCOc1ccc(-c2ccc(Nc3nc(N4CCOCC4)nc4c3CN(C(C)C)C4=O)cc2)cc1 [Example 71, 2-(morpholin-4-yl)-6-(propan-2-yl)-4-({4′-[(prop-2-yn-1-yl)oxy][1,1′-biphenyl]-4-yl}amino)-5,6-dihydro-7H-pyrrolo[3,4-d]pyrimidin-7-one]",4.13 µM
5,"CC(C)N1Cc2c(Nc3ccc(C4CCCCC4)cc3)nc(N3CCOCC3)nc2C1=O [Example 11, 4-[(4-cyclohexylphenyl)amino]-2-(morpholin-4-yl)-6-(propan-2-yl)-5,6-dihydro-7H-pyrrolo[3,4-d]pyrimidin-7-one]",2.01 µM
6,"NC(=O)c1cnc2nc(N3CCOC(C4CC4)C3)nc(Nc3ccc(C4CCCCC4)cc3)c2c1 (stereo not drawn) [Example 105, 4-((4-cyclohexylphenyl)amino)-2-(2-cyclopropylmorpholino) pyrido[2,3-d]pyrimidine-6-carboxamide]",1.17 µM
7,"C[C@@H]1CN(c2nc(Nc3ccc(C4CCC4)cc3)c3c(n2)C(=O)N(CCN(C)C)C3)CCO1 [Example 75, 4-[(4-cyclobutylphenyl)amino]-6-[2-(dimethylamino)ethyl]-2-[(2R)-2-methylmorpholin-4-yl]-5,6-dihydro-7H-pyrrolo[3,4-d]pyrimidin-7-one]",3.77 µM
8,"CC(C)N1Cc2nc(N3CCOCC3)nc(Nc3ccc(C4CCCCC4)cc3)c2C1 [Example 109, N-(4-cyclohexylphenyl)-6-isopropyl-2-morpholino-6,7-dihydro-5H-pyrrolo[3,4-d]pyrimidin-4-amine]",6.34 µM
9,"C[C@@H]1CN(c2nc(Nc3ccc(C4CCCCC4)cc3)c3cc(C(=O)O)cnc3n2)CCO1 [Example 103, (R)-4-((4-cyclohexylphenyl)amino)-2-(2-methylmorpholino)pyrido[2,3-d]pyrimidine-6-carboxylic acid]",3.99 µM
10,"CC(C)N1Cc2c(Nc3ccc(C(F)(F)C(F)(F)F)cc3)nc(N3CCO[C@H](C)C3)nc2C1=O [Example 61, 2-[(2R)-2-methylmorpholin-4-yl]-4-{[4-(pentafluoroethyl)phenyl]amino}-6-(propan-2-yl)-5,6-dihydro-7H-pyrrolo[3,4-d]pyrimidin-7-one]",5.51 µM
11,"CC(C)c1ccc(Nc2nc(N3CCSCC3)nc3c2CN(C(C)C)C3=O)cc1 [Example 5, 6-(propan-2-yl)-4-{[4-(propan-2-yl)phenyl]amino}-2-(thiomorpholin-4-yl)-5,6-dihydro-7H-pyrrolo[3,4-d]pyrimidin-7-one]",3.77 µM
12,"CC(C)N1Cc2c(Nc3ccc(C4CCCCC4)cc3)nc(-c3ccnc(C#N)c3)nc2C1=O [Example 41, 4-(4-((4-cyclohexylphenyl)amino)-6-isopropyl-7-oxo-6,7-dihydro-5H-pyrrolo[3,4-d]pyrimidin-2-yl)picolinonitrile]",0.518 µM
13,"C[C@@H]1CN(c2nc(Nc3ccc(C4CCCCC4)cc3)c3cccnc3n2)CCO1 [Example 96, N-(4-cyclohexylphenyl)-2-[(2R)-2-methylmorpholin-4-yl]pyrido[2,3-d]pyrimidin-4-amine]",2.92 µM
14,"CC(C)N1Cc2c(Nc3ccc(C4CCCCC4)cc3)nc(N3CCOC(CCO)C3)nc2C1=O (stereo not drawn) [Example 27, 4-[(4-cyclohexylphenyl)amino]-2-[2-(2-hydroxyethyl)morpholin-4-yl]-6-(propan-2-yl)-5,6-dihydro-7H-pyrrolo[3,4-d]pyrimidin-7-one]",3.58 µM
15,"CC(=O)Nc1cnc2nc(N3CCO[C@H](C)C3)nc(Nc3ccc(C4CCCCC4)cc3)c2c1 [Example 107, (R)—N-(4-((4-cyclohexylphenyl)amino)-2-(2-methylmorpholino)pyrido[2,3-d]pyrimidin-6-yl)acetamide]",6.3 µM
16,"CCN1Cc2c(Nc3ccc(C4CCCCC4)cc3)nc(N3CCO[C@H](C)C3)nc2C1=O [Example 68, 4-[(4-cyclohexylphenyl)amino]-6-ethyl-2-[(2R)-2-methylmorpholin-4-yl]-5,6-dihydro-7H-pyrrolo[3,4-d]pyrimidin-7-one]",1.94 µM
17,"CC(C)N1Cc2c(Nc3ccc(-c4ccccc4)c(F)c3)nc(C3=CCOCC3)nc2C1=O [Example 82, 2-(3,6-dihydro-2H-pyran-4-yl)-4-((2-fluoro-[1,1′-biphenyl]-4-yl)amino)-6-isopropyl-5,6-dihydro-7H-pyrrolo[3,4-d]pyrimidin-7-one]",2.29 µM
18,"C[C@@H]1CN(c2nc(Nc3ccc(C4CCCCC4)cc3)c3cc(C#N)cnc3n2)CCO1 [Example 101, (R)-4-((4-cyclohexylphenyl)amino)-2-(2-methylmorpholino)pyrido[2,3-d]pyrimidine-6-carbonitrile]",1.01 µM
19,"CC(C)N1Cc2c(Nc3ccc(C4CCCCC4)cc3)nc(N(C)Cc3cnccn3)nc2C1=O [Example 33, 4-[(4-cyclohexylphenyl)amino]-2-{methyl[(prazin-2-yl)methyl]amino}-6-(propan-2-yl)-5,6-dihydro-7H-pyrrolo[3,4-d]pyrimidin-7-one]",5.01 µM
20,"CCOCCN(C)c1nc(Nc2ccc(C3CCCCC3)cc2)c2c(n1)C(=O)N(C(C)C)C2 [Example 20, 4-[(4-cyclohexylphenyl)amino]-2-[(2-ethoxyethyl)(methyl)amino]-6-(propan-2-yl)-5,6-dihydro-7H-pyrrolo[3,4-d]pyrimidin-7-one]",2.35 µM
21,"Cc1cc(-c2nc3c(c(Nc4ccc(C5CCCCC5)cc4)n2)COC3)ccn1 [Example 95, N-(4-cyclohexylphenyl)-2-(2-methylpyridin-4-yl)-5,7-dihydrofuro[3,4-d]pyrimidin-4-amine]",3.22 µM
22,"CC(C)N1Cc2c(Nc3ccc(C4CCCCC4)cc3)nc(N3CCOC[C@H]3C(=O)O)nc2C1=O [Example 38, (3S)-4-{4-[(4-cyclohexylphenyl)amino]-7-oxo-6-(propan-2-yl)-6,7-dihydro-5H-pyrrolo[3,4-d]pyrimidin-2-yl}morpholine-3-carboxylic acid]",9.34 µM
23,"CC(C)N1Cc2c(Nc3ccc(-c4ccccc4)c(F)c3)nc(N3CCOCC3)nc2C1=O [Example 84, 4-[(2-fluoro[1,1′-biphenyl]-4-yl)amino]-2-(morpholin-4-yl)-6-(propan-2-yl)-5,6-dihydro-7H-pyrrolo[3,4-d]pyrimidin-7-one]",2.09 µM
24,"C1=C(c2nc3c(c(Nc4ccc(C5CCC5)cc4)n2)COC3)CCOC1 [Example 91, N-(4-cyclobutylphenyl)-2-(3,6-dihydro-2H-pyran-4-yl)-5,7-dihydrofuro[3,4-d]pyrimidin-4-amine]",9.92 µM
